Entries after “also recorded” stand apart in the source; their conditions may differ.

The conditions of data set [1]: in vivo; cited from earlier work.
Data set [2] deals with γδ T cells. To be noted: adults with multiple myeloma, intravenous 60-90 mg, within one to three weeks (Kunzmann, 1999); cited from earlier work.
For data set [3], the system named is γδ T cells. In words: Phase II clinical trial in B-NHL with rituximab, γδ T cell fold increase. Format: in vivo, human. To be noted: for γδ T cell fold increase as compared to pre-dose (mean): B-NHL, Phosphostim once day 7, rituximab 375 mg/m^2, measured day 0 and day 145. How it is done:
(§1) 5 patients suffering from B-NHL are treated with 4 MIU total in human daily (arm A, 3 patients), or 8 MIU total in human daily (arm B, 2 patients). The treatment regimen used for this study is set out in FIG. 4B.
(§2) Rituxan™ (rituximab) is administered at a dose of 375 mg/m^2, on day 0 and then on day 7, 14 and 21, which corresponds to the common Rituxan™ treatment. Phosphostim™ is administered once on day 7 which is the first day of treatment. IL-2 is administered daily subcutaneous (s.c.) from day 7 to day 11. On day 7, IL-2 is administered 10 minutes after the end of Phosphostim™ infusion.
γδ T cell population is measured through cytometry on day 0 (before the beginning of the treatment) and on day 145 (corresponds to day 7 from the beginning of the Phosphostim™ treatment. The expansion of γδ T cell is obtained in fold increase compared to the basal γδ T cell count.

The test system of data set [4] is γδ T cells. In words: Phase II clinical trial in mRCC, γδ T cell fold increase day 7 vs pre-dose (flow cytometry). It is filed as in vivo, human. The method, then:
Blood samples (4 ml) were withdrawn into EDTA containing tubes. Tubes were shipped overnight at room temperature (RT) before flow cytometry analyses.
Peripheral lymphocytes were analyzed by flow cytometry on total blood, after triple staining with anti-Vδ2FITC, anti-CD3PE and anti-CD25PC5 antibodies (Vδ2-FITC: IMMU389 clone, Immunotech-Beckman-Coulter, Marseilles, France; CD3-PE: UCHT1 clone, Immunotech-Beckman-Coulter; CD25PC5: M-A251 clone, Becton Dickinson, Le Pont de Claix, France).
Briefly, 100 μl patient blood was incubated 15 min at RT with 10 μl anti-Vdelta2-FITC, 10 μl anti-CD3-PE and 10 μl anti-CD25PC5 antibodies. Antibodies were washed with 3 ml 1×PBS, centrifuged for 4 min at 1300 rpm at RT and supernatant was discarded. Red cells were lysed with the OptiLyse B reagent (Immunotech-Beckman-Coulter, Marseilles, France) according to the manufacturer's instructions. At the final step, stained white blood cells were recovered by centrifugation and resuspended in 300 μl 1×PBS+0.2% PFA. Flow cytometry analysis on viable cells was performed on a FacsSCAN apparatus (Becton Dickinson) with the FacsDiva software.
(§3) A phase II clinical trial in mRCC was set up, to test the efficacy of a therapeutic regimen with a fixed dose of Phosphostim™ (750 mg/m^2, 50 ml infusion in 30 min) and two doses of IL-2.
(§4) Patients in Arm A were treated with an IL-2 dose of 2 MIU total daily (equivalent to approximately 1 MIU/m^2 daily). Patients in Arm B were treated with an IL-2 dose of 8 MIU total daily. For practical reasons, and as a human body surface varies from 1.5 to 2.1 m^2 depending on each variable of the patient, a single dose for all the patients of Arm B was fixed. It will be appreciated that when taking the variations in body surface into account, this 8 MIU total daily dose of IL-2 can also be expressed as a range from […] daily.
(§5) Patients suffering from mRCC were treated with a fixed dose of Phosphostim™ (750 mg/m^2, i.v. infusion of 30 min) and IL-2, at a dose of 2 MIU subcutaneous (s.c.) daily (arm A, 18 patients), or 8 MIU s.c. daily (arm B, 21 patients).
(§6) Phosphostim™ was administered once on day 1 which is the first day of treatment. IL-2 is administered daily s.c. from day 1 to day 5. On day 1, IL-2 is administered 10 minutes after the end of Phosphostim™ infusion.
γδ T cell population was measured through cytometry on day 0 (before the beginning of the treatment) and on day 7. The expansion of γδ T cell was obtained in fold increase of expansion compared to the basal γδ T cell count.
(In general: Flow cytometry measures light scatter and fluorescence of single cells or particles in a stream.)

For data set [5], the system named is γδ T cells. In words: Phase I BrHPP dose escalation with IL-2 1 MU/m^2, γδ T cell amplification (FIG. 7). The settings on record: BrHPP 100, 300, 600 and 900 MU/m^2 iv 30 min infusion day 1; IL-2 1 MU/m^2 daily for four days. It is filed as in vivo, human. How it is done:
The first four columns (corresponding to 100, 300, 600 and 900 MU/m^2 doses of BrHPP) correspond to patients treated with BrHPP (iv, 30 min infusion on day 1) and IL-2 (1 MU/m^2 daily for four days starting on day 1) whereas the last two columns represent B-NHL patients who have been treated with 4 MIU total in human daily (arm A), or 8 MIU total in human daily (arm B), in the treatment setting described for FIG. 6.

A further data set has as its system NK cells. In words: Phase II clinical trial in mRCC, NK cell fold increase day 7 vs pre-dose. Format: in vivo, human. To be noted: Phosphostim with IL-2 2 MIU or 8 MIU total daily (FIG. 3). How it is done: (§7) FIG. 3 has been obtained from observations made during the clinical trial as described above. On day 7, cell subsets were determined and compared to the count made on day 0, before the treatment.
(§8) A specific pharmacological expansion of γδ T cell with Phosphostim™ was observed, and this expansion was related to dose of IL-2 administered. […] Moreover, despite an increased dose of IL-2 compared to previous publications, this expansion is still very specific to γδ T cells.

The test system of a further data set is total T cells. In words: Phase II clinical trial in mRCC, total T cell fold increase day 7 vs pre-dose. Format: in vivo, human. The settings on record: Phosphostim with IL-2 2 MIU or 8 MIU total daily (FIG. 3). The method, then:
as §7, §8

Data set [6] is described as follows: Phase II clinical trial in B-NHL with rituximab, tolerance / toxicity. The settings on record: B-NHL patients. Format: in vivo, human. The method, then: as §1, §2
Data set [7] in a line: Phase II clinical trial in mRCC, tolerance / toxicity. Format: in vivo, human. The settings on record: mRCC patients. The method, then: as §3, §4, §5, §6
In another data set the test system is Vγ9Vδ2 T cells. In words: IL-2 dose range with fixed dose of Phosphostim in cynomolgus macaque, Vγ9Vδ2 T cell expansion by flow cytometry. It is filed as in vivo, cynomolgus monkeys (M. fascicularis). The settings on record: Phosphostim 48 mg/kg i.v. once, day 5 vs day 0. How it is done:
As detailed in Example 2, a study has been set up on nonhuman primates (Cynomolgus macaques) to investigate the effect of the IL-2 dose on γδ T cell expansion in vivo, with a fixed dose of Phosphostim™ (48 mg/kg). Blood extracts have been dosed by flow cytometry on day 5 and the γδ T cell expansion has been expressed in expansion percentage compared to the basal γδ T cell count.
Follow up of Vγ9Vδ2 T cells in vivo in the macaque has been performed as usual by flow cytometry on days 0 (pre-dose) and 5 of treatment. […]
IL2: recombinant human IL2, Proleukin™, CHIRON; administered daily by subcutaneous (s.c.) route.
Phosphostim™ dose 48 mg/kg administered as 30-min infusion by intravenous (i.v.) route.
Twelve cynomolgus monkeys (M. fascicularis) aged 2.5 to 3.5 years at the start of the study. These animals were naïve of any previous treatment with phosphoantigens or IL2.
The animals have been allocated to 4 dose-groups (0.075, 0.3, 1.2 and 2.4 million UI per day for 7 days), with 3 animals per dose, receiving IL2 daily for 7 days have, and a fixed dose of Phosphostim™ 200 (48 mg/kg) once, on the first day of treatment, with 3 animals per dose.

Consider “des-alanyl-1, serine-125-human interleukin-2 [IL-2]”, for which the toxicity grade reported result in data set [1] is listed as “grade III or IV toxicity”.
For `NCCC(O)(P(=O)(O)O)P(=O)(O)O` [pamidronate, 3-amino-1-hydroxypropane-1,1-diphosphonic acid], the “circulating γδ T cells” value in the data set on γδ T cells [2] is “increases of circulating γδ T cells”.
For the compound “3-(bromomethyl)-3-butanol-1-yl-diphosphate [Phosphostim™]”, the “γδ T cell fold increase as compared to pre-dose (mean)” value with γδ T cells [3] (arm A: IL-2 4 MIU total daily s.c. day 7-11, 3 patients) stood at 17 fold; with γδ T cells [3] (arm B: IL-2 8 MIU total daily s.c. day 7-11, 2 patients) it was 46 fold. In the data set with γδ T cells [3] (IL-2 8 MIU total daily vs lower IL-2 doses (FIGS. 6 and 7)), the “γδ T cell amplification, higher IL-2 dose compared to lower dose” value is given as “much better γδ T cell amplification”. The “γδ T cell expansion, arm B compared to arm A” value with γδ T cells [4] (IL-2 8 MIU total daily vs 2 MIU total daily, fixed Phosphostim 750 mg/m^2) is given as “significantly better γδ T cell expansion; also recorded: significantly higher”. Also, the “γδ T cell fold increase on day 7 as compared to pre-dose (mean)” value in the data set on γδ T cells [4] (arm A: IL-2 2 MIU total daily s.c. day 1-5, Phosphostim 750 mg/m^2 i.v. day 1, 18 patients (FIG. 2)) is recorded as 3 fold; in the data set on γδ T cells [4] (arm A: IL-2 2 MIU total daily, updated results, 29 patients (FIG. 5)), 2 fold; with γδ T cells [4] (arm B: IL-2 8 MIU total daily s.c. day 1-5, Phosphostim 750 mg/m^2 i.v. day 1, 21 patients (FIG. 2)), 12 fold; with γδ T cells [4] (arm B: IL-2 8 MIU total daily, updated results, 31 patients (FIG. 5)) it was 8 fold. Also, the “influence of the quantity of BrHPP on the γδ T cell amplification” value in the data set on γδ T cells [5] is reported as “slight influence”. Besides, the “NK cell fold increase on day 7 as compared to pre-dose” value with NK cells was “are not expanded; also recorded: do not observe a significant NK cells expansion”. Besides, the “total T cell fold increase on day 7 as compared to pre-dose” value with total T cells is listed as “are not expanded; also recorded: nor a significant total T cell expansion”. For the same compound, the entries for the “toxicity in Arm B compared to Arm A” value in data set [6] (IL-2 8 MIU vs 4 MIU total daily) and in data set [7] (IL-2 8 MIU vs 2 MIU total daily with Phosphostim) were “no significant difference in toxicity” and “none of the patients in arm B experienced an adverse toxicity effect; also recorded: no significant difference in toxicity”, respectively. Also, the “tolerance to the IL-2 dose administered with Phosphostim and rituximab” value in [6] (arm B IL-2 8 MIU total daily) is listed as “good tolerance”. For the same compound, the “tolerance to the IL-2 dose administered with Phosphostim” value in data set [7] (arm B IL-2 8 MIU total daily) is listed as “good tolerance”. Besides, the “γδ T cell expansion” value in the data set on Vγ9Vδ2 T cells (IL-2 0.075 MIU/animal/day s.c. for 7 days) was “not sufficient to induce a γδT cell specific amplification; also recorded: no effect”; with Vγ9Vδ2 T cells (IL-2 0.3 MIU/animal/day s.c. for 7 days), “specific and significant γδcell expansion; also recorded: weak γδT cell increase”; with Vγ9Vδ2 T cells (IL-2 1.2 MIU/animal/day s.c. for 7 days), “the expansion is higher; also recorded: significantly higher increase; also recorded: a plateau is observed at this dose”; in the data set with Vγ9Vδ2 T cells (IL-2 2.4 MIU/animal/day s.c. for 7 days), “the expansion is higher; also recorded: significantly higher increase; also recorded: does not trigger a better expansion than 1.2 MIU/animal/daily”.

These data come from US20100189681A1, “Methods of Using Phosphoantigens Together with Interleukin-2 for the Treatment of Cancer” (INNATE PHARMA S.A., priority 2007, published 2010).
